Results on 1 molecule are retold here after ChEMBL document CHEMBL5620362 (Eur J Med Chem, 2023).

For data set [1], the system named is HPAF-II. Briefly: Induction of apoptosis in human HPAF-II cells assessed as necrotic cells at 10 uM incubated for 48 hrs by Annexin V-FITC/PI staining based flow cytometry (reference value: 8.09 %). Format: functional. For orientation: A flow cytometer gives signals particle by particle.
Data set [2] can be described thus: Toxicity in nude Balb/cA mouse xenografted with human HPAF-II cells assessed as redness at injection site at 15 mg/kg, ip qd measured for 12 days. Format: organism-based. The note with it: in vivo, 288 h, time 12 day.
The target in data set [3] is T1, Nuclear receptor ROR-gamma (Homo sapiens, UniProt P51449).
T1 sequence (P51449 whole entry): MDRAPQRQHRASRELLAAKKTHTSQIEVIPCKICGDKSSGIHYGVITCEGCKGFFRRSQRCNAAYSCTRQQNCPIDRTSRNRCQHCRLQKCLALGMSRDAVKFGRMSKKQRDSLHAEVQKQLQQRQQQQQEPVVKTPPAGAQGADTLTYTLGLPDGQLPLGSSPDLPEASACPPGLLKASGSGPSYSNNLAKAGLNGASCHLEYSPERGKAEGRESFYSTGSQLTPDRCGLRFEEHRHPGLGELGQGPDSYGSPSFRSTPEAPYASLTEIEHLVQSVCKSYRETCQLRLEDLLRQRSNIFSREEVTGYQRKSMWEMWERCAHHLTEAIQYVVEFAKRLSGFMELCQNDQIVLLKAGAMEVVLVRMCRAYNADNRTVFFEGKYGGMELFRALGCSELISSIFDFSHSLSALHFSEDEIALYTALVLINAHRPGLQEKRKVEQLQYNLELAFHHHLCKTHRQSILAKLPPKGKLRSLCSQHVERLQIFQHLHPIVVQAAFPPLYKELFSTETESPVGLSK
Briefly: Binding affinity to CM5 chip-immobilized recombinant ROR-gamma LBD (unknown origin) assessed as dissociation constant by SPR analysis. Background: Surface plasmon resonance follows binding to a sensor surface in real time, without labels.

A short description of data set [4]: Volume of distribution at steady state in ICR mouse at 3 mg/kg, iv. Format: ADME, organism-based. The note with it: in vivo, read-out: Vdss.
In data set [5] the target is T2, Nuclear receptor ROR-gamma (Homo sapiens) (UniProt P51449).
T2 sequence (whole entry): T1 sequence (P51449 whole entry)
Briefly: Antagonist activity at Gal4-tagged ROR-gamma LBD (unknown origin) transfected in HEK293T cells assessed as reduction in luciferase activity at 0.1 to 1 uM incubated for 24 hrs by Renilla luciferase reporter gene assay. The note with it: filed as antagonist, dose 0.1-1 µM. Format: cell-based. A general note: In a reporter assay the amount or activity of a reporter protein is the signal.

The subject of data set [6] is HPAF-II. Briefly: Induction of apoptosis in human HPAF-II cells assessed as necrotic cells at 1 uM incubated for 48 hrs by Annexin V-FITC/PI staining based flow cytometry (reference value: 8.09 %). Format: functional.
Data set [7] relates to HPAF-II. Briefly: Induction of apoptosis in human HPAF-II cells assessed as increase in cleaved caspase-3 level at 0.1 to 1 uM incubated for 48 hrs by Western blot analysis. Format: functional, cell-based. The note with it: dose 0.1-1 µM.
The test system of data set [8] is HPAF-II. The data set is described as follows: Downregulation of phosphorylated MEK expression in human HPAF-II cells at 0.1 to 1 uM incubated for 48 hrs by Western blot analysis. The note with it: dose 0.1-1 µM. Format: functional, cell-based.

pKd: −log10 of the molar value. The source made the active and inactive calls. The rule behind the calls is not given here.

For orientation: pKd means the Kd on a negative log10 scale, so that one unit is a factor of ten. With `C=C(C)[C@@H]1CC[C@]2(C(=O)NCCCN(C)C)CC[C@]3(C)[C@H](CC[C@@H]4[C@@]5(C)CC[C@H](O)C(C)(C)[C@@H]5CC[C@]43C)[C@@H]12`, the Activity was 3.33% in data set [1], “Toxic” in data set [2] and 2.06% in data set [6]. Also, in data set [3], the pKd is 6.74. Moreover, the Vd in data set [4] is 5.21 L/kg. The outcome in data set [5], in data set [7] and in data set [8] was Active.
